Experiments:
JMJD2A (h) = biological target: T1, JMJD2A (h) (Homo sapiens, UniProt O75164); test: Epigenetic enzyme assay, Demethylases (KDMs); format: biochemical; settings: read-out: % Inhibition of Control Values
T1 sequence (O75164 1-1064): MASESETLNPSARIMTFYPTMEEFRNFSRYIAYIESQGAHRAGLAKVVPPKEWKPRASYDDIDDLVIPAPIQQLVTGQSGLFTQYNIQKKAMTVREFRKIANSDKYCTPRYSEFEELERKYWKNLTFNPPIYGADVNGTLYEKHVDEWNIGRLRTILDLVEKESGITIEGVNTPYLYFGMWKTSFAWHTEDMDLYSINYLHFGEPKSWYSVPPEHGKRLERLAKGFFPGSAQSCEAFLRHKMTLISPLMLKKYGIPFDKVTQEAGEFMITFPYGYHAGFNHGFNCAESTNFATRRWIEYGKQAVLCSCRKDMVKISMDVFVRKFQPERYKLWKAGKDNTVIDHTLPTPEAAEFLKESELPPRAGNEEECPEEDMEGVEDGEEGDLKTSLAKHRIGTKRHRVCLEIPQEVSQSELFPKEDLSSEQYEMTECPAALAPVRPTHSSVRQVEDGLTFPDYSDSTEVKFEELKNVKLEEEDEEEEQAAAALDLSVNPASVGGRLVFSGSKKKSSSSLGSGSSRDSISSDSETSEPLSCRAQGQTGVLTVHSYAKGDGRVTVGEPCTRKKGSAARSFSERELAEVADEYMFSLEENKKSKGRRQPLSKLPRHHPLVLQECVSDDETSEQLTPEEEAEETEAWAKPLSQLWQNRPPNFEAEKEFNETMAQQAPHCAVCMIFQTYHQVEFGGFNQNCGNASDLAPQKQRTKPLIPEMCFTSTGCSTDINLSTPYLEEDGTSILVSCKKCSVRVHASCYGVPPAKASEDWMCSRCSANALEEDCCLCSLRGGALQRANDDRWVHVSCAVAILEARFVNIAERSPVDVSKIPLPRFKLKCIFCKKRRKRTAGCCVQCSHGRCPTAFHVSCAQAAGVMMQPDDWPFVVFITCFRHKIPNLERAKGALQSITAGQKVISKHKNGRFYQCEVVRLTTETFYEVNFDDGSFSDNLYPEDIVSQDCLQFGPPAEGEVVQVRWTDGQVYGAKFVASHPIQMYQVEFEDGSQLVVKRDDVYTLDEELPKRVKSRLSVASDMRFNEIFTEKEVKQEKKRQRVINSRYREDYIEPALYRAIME

MLL4(h) complex = test: Epigenetic enzyme assay, Methyltransferases (MTs); format: biochemical, human; settings: for % Inhibition of Control Values: 10 μM
MYST4(h) = MYST4(h) (Homo sapiens, UniProt Q8WYB5); test: Epigenetic enzyme assay, Histone acetyltransferases (HATs); format: biochemical; settings: for inhibition at 10 µM: read-out: % Inhibition of Control Values
PB1(4) (h) bromodomain = biological target: T2, PB1(4) (h) bromodomain (Homo sapiens, UniProt Q86U86); test: Epigenetic binding assay, Bromodomain; settings: 10 μM; read-out: % Inhibition of Control Specific Binding
T2 construct: Bromodomain

[1] = biological target: EZH2/EED/SUZ12 (h) (PRC2 complex) (Homo sapiens, UniProt Q15910); test: Epigenetic enzyme assay, Methyltransferases (MTs); format: biochemical; settings: read-out: % Inhibition of Control Values
[2] = biological target: T3, Angiotensin Converting Enzyme (Oryctolagus cuniculus, UniProt P12822); test: Peptidase, Angiotensin Converting Enzyme; format: biochemical, Rabbit; settings: assay year 2015
T3 construct: from tissue; host or cells: rabbit lung
T3 sequence (P12822 34-1310): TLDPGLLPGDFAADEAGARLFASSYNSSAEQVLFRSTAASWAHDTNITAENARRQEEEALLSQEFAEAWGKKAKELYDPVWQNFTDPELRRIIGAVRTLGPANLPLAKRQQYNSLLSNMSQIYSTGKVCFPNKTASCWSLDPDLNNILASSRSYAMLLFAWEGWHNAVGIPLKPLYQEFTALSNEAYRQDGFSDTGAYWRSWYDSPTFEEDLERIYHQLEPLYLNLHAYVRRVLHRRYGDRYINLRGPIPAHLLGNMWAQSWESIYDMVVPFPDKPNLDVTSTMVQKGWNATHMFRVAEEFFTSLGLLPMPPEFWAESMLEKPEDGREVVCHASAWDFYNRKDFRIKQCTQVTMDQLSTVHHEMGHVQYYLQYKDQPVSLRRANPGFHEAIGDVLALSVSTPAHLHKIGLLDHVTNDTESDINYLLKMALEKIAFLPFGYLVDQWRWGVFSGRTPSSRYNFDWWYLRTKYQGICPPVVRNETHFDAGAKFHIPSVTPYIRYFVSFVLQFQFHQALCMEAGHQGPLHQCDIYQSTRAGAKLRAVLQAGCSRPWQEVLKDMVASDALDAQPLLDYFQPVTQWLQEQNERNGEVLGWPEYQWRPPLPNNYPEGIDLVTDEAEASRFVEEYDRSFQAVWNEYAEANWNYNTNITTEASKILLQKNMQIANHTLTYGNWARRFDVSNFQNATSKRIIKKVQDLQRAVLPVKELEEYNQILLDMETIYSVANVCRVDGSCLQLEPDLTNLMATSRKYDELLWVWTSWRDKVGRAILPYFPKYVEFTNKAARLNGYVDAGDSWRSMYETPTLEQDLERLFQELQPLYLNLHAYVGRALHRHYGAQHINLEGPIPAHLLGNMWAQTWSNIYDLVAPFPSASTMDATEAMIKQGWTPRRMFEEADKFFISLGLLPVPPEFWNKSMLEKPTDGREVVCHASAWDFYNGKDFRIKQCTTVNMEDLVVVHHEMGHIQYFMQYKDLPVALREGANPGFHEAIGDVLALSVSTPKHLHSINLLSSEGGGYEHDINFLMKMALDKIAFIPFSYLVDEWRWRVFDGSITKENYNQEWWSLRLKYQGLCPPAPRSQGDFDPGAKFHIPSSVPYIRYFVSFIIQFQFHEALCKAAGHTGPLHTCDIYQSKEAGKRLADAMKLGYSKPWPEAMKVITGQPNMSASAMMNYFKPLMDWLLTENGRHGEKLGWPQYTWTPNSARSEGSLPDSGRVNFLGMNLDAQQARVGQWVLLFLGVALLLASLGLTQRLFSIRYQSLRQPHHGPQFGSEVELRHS
Description: The in vitro pharmacological studies were conducted by Eurofins PanLab (Taiwan) using the parameters shown in Table 13 with respect to appropriate literature references.

Chain of MYST4(h) (Q8WYB5 whole entry): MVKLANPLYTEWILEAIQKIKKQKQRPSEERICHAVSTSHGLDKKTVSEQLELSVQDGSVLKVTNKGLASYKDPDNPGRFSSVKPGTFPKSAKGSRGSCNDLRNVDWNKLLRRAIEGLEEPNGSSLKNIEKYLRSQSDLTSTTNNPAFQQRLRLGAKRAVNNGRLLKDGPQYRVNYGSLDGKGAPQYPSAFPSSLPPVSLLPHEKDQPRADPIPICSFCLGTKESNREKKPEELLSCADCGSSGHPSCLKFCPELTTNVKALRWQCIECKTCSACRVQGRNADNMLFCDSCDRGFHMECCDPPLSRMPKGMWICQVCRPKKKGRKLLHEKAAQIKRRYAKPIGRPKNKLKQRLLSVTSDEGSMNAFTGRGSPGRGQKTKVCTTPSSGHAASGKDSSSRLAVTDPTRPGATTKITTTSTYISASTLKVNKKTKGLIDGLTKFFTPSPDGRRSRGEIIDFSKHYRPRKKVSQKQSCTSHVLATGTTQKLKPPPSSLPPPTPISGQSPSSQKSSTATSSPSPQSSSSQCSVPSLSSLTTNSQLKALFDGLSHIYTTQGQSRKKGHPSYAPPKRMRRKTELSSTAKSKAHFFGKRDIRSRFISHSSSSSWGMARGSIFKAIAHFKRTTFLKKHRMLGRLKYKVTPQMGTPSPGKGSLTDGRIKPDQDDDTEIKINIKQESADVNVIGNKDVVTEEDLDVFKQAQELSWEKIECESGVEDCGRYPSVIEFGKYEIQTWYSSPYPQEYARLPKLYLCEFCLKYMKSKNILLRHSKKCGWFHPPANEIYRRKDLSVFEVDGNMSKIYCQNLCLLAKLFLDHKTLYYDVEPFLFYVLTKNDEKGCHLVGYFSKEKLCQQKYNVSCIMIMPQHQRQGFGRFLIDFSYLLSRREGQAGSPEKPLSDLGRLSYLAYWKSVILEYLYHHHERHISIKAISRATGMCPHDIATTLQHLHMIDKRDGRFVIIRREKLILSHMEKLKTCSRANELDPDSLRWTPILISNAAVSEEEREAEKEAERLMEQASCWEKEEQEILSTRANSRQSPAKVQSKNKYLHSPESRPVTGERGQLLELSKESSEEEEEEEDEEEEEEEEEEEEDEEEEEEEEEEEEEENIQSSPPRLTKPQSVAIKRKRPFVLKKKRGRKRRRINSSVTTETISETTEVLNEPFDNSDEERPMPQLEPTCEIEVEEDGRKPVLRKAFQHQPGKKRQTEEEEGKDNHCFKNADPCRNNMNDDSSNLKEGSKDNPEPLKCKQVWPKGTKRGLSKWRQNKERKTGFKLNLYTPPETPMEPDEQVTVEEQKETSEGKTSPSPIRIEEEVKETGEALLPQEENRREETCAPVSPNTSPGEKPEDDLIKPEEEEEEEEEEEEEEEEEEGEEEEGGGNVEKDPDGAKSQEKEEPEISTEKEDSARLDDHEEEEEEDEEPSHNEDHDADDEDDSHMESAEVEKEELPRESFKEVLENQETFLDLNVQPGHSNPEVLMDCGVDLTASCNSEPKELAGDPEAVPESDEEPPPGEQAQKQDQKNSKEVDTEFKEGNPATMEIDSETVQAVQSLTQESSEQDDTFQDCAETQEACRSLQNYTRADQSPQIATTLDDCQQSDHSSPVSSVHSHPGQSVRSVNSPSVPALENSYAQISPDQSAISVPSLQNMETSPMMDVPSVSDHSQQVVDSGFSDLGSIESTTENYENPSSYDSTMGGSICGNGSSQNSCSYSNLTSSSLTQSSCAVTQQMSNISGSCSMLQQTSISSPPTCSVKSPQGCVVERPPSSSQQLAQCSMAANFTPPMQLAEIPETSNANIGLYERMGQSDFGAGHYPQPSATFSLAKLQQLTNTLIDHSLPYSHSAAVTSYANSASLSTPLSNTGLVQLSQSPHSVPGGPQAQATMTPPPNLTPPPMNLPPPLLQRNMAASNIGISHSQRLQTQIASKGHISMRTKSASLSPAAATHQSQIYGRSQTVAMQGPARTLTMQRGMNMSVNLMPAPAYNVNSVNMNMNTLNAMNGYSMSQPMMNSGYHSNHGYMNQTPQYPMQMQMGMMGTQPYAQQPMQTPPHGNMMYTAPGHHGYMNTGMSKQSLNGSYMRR
T2 sequence (Q86U86 518-625 limits assumed): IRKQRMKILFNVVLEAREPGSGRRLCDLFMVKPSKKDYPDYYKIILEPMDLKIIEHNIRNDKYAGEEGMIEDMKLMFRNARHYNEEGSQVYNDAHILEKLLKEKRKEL
Chain of EZH2/EED/SUZ12 (h) (PRC2 complex) (Q15910 whole entry): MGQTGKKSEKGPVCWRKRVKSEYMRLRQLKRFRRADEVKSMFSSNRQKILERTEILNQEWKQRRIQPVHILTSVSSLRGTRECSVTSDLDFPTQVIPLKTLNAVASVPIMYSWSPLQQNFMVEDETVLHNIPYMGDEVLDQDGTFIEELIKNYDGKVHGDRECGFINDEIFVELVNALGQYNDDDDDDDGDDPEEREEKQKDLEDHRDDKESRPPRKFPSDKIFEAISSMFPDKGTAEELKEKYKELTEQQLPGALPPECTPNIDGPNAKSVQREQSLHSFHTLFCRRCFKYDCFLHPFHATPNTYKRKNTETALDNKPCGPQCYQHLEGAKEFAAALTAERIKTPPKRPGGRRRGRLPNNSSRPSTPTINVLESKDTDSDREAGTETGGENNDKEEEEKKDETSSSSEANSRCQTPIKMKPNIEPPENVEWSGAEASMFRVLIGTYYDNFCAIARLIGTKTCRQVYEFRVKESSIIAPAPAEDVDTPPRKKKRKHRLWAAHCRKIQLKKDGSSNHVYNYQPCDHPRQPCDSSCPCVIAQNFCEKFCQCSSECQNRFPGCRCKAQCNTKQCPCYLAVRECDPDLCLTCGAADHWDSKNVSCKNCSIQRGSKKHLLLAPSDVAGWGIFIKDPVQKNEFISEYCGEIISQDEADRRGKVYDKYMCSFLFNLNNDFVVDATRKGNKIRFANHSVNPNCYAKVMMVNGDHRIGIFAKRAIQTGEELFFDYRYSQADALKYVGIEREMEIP
Chain of EZH2/EED/SUZ12 (h) (PRC2 complex) (O75530 whole entry partner): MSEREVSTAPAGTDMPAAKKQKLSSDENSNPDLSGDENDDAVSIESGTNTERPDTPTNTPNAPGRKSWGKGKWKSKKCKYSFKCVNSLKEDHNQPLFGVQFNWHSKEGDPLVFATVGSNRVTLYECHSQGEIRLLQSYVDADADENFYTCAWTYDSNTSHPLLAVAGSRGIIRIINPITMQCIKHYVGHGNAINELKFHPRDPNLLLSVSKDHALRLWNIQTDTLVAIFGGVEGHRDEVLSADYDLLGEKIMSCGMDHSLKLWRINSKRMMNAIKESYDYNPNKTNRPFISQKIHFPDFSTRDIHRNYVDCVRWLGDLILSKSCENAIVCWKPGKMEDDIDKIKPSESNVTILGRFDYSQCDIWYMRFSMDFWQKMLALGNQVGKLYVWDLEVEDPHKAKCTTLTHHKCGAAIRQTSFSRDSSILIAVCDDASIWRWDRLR
Chain of EZH2/EED/SUZ12 (h) (PRC2 complex) (Q15022 whole entry partner): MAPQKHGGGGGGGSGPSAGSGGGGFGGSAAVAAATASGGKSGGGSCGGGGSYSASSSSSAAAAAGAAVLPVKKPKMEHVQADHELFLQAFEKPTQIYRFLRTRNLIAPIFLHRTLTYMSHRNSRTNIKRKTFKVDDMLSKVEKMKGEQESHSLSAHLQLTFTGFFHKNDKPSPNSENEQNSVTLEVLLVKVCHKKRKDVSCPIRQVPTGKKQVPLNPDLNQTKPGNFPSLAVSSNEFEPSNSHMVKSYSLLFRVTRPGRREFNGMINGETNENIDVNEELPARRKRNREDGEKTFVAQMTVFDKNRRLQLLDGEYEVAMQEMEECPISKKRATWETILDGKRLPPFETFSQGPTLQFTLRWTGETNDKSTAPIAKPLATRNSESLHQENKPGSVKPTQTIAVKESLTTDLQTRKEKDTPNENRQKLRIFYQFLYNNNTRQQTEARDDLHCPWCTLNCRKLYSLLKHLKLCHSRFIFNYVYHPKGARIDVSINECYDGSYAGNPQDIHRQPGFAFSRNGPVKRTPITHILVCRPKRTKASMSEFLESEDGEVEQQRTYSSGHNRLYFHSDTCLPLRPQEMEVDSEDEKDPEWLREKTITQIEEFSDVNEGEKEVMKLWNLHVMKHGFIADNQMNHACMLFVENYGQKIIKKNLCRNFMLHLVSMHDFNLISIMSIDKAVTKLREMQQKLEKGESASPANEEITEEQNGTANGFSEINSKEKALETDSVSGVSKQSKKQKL

| SMILES | inhibition at 10 µM (JMJD2A (h)) [%] | % Inhibition of Control Values (MLL4(h) complex) [%] | inhibition at 10 µM (MYST4(h)) [%] | inhibition at 10 µM (PB1(4) (h) bromodomain) [%] | inhibition at 10 µM [1] [%] | % control response at 10 µM [2] [%] | IC50 (MYST4(h); Table 11, inhibition/concentration-response curve) [nM] | IC50 (MLL4(h) complex; read-out: Reference IC50) [nM] |
| --- | --- | --- | --- | --- | --- | --- | --- | --- |
| CC(C)=CCC[C@H](CO)[C@@H]1CC[C@@H](C)c2c1cc(C)c(O)c2O [Compound 1, 7,8,18-trihydroxyserrulat-14-ene] | 29 | −16 | 25 | 41 | 19 | 0 | – | – |
| CC(C)=CCC[C@@H]1C(O)Oc2c(C)cc(O)c3c2[C@H]1CC[C@H]3C (some centres unmarked) [Compound 2, 5,18-epoxyserrulat-14-en-8,18-diol] | -10 | −18 | 39 | -3 | 26 | -3 | – | – |
| CC(C)=CCC[C@@H]1COc2c(C)cc(O)c3c2[C@H]1CC[C@H]3C [Compound 3, 5,18-epoxy-8-hydroxyserrulat-14-ene] | 12 | −4 | 71 | 16 | 4 | -3 | – | – |
| CC(C)=CCC[C@H](C)[C@@H]1CC[C@@H](C)c2c1cc(C)c(O)c2O [Compound 4, 7,8-dihydroxyserrulat-14-ene] | – | – | – | – | – | – | 4200 | – |
| Nc1ncnc2c1ncn2[C@@H]1O[C@H](CSCC[C@H](N)C(=O)O)[C@@H](O)[C@H]1O [SAH] | – | – | – | – | – | – | – | 550 |

From patent US11331299B2, “Medicinal use of serrulatane diterpenes” (The University of Sydney, priority 2016, dated 2022)
